Measurements taken from patent publication US20240158393A1, “PYRIDONE COMPOUNDS AND METHODS OF USE” (Exelixis, Inc., priority 2021, published 2024).
Structures can show the parent of a compound that is named as a salt.

Experiments:
Human Met = target: T1, Human Met (Homo sapiens, UniProt P08581); assay: Human Met kinase assay (33P radiometric / HTRF KinEase); assay type: biochemical; details: protocols of Examples D-1 and/or D-2; read-out: c-Met IC50
T1 construct: Human MET (residues 956-1390)
Description: Kinase activity and compound inhibition were investigated using the ^33P-Phosphoryl transfer radiometric kinase assay, performed using the KinaseProfiler™ service of Eurofins Pharma Discovery Services UK Limited. Dose-response experiments were performed using nine compound concentrations in a 96-well microtiter plate. For each assay, all compounds were prepared to a 50× final assay concentration (50 μM) in 100% DMSO, then diluted in a half-log series, with the final top concentration at 1 μM. This working stock of the compound was added to the assay well as the first component in the reaction, followed by the remaining components as detailed in the following assay protocols below. The positive control wells (100% kinase activity) contain all components of the reaction including 2% DMSO (control for solvent effects), except the compound of interest. Blank wells contain all components of the reaction, with the reference inhibitor, staurosporine. This reference compound was used to abolish kinase activity and generated the 0% kinase activity base-line. IC50 values were calculated by nonlinear regression analysis using the sigmoidal dose-response (variable slope) curve fit on XLFit version 5.3 (ID Business Solutions).
Kinase activity and compound inhibition were also investigated using the HTRF® KinEase assay (Cisbio Cat #62TKOPEB) per manufacturer's instructions. In short, compounds were delivered in 300 nL volumes at 10 different concentrations in DMSO (3% final) to empty 384-well assay plates (Corning cat #3824). A mixture of enzyme, 1 μM biotinylated peptide substrate, and buffer in 10 μL volume was added. The assay was started upon the addition of ATP (at Km). The 10 μL reaction was incubated at room temperature. The reaction was stopped upon the addition of detection buffer containing streptavidin-XL665 (5 μL) and TK antibody-Eu3+(5 μL). After a 60 min incubation at room temperature, the fluorescence at 665 nm and 620 nm was read on an Envision microplate reader (Perkin Elmer).
Kinase activity normalized to DMSO (100% activity) and reference compound at 1 μM and (0% activity) was calculated using the fluorescence ratio […]. IC50 values were calculated by nonlinear regression analysis using a 4-parameter logistic curve fit in ActivityBase XE (IDBS).
Example D-1: Human Met (residues R974-S1390 with A1209G and V1290L, 3.4 nM) was incubated with 8 mM MOPS pH 7.0, 0.2 mM EDTA, 250 μM KKKGQEEEYVFIE (SEQ ID NO:3), 1 mM sodium orthovanadate, 5 mM […], 10 mM magnesium acetate, and 10 μM [γ-^33P-ATP]. The reaction was initiated by the addition of the Mg/ATP mix. After incubation for 40 minutes at room temperature, the reaction was stopped by the addition of phosphoric acid to a concentration of 0.5%. A reaction aliquot of 10 μL was then spotted onto a P30 filtermat and washed four times for 4 minutes in 0.425% phosphoric acid and once in methanol prior to drying and scintillation counting. Incorporated ^33P was measured using the Wallac Microbeta scintillation counter (Perkin Elmer).
Example D-2: Human MET (residues 956-1390; CarnaBio, 0.1 ng/well) was also incubated with enzymatic buffer (Cisbio) supplemented with 5 mM MgCl2, 1 mM DTT and 1 mM MnCl2. The mixture was added to the pre-plated compounds. The reaction was initiated upon addition of ATP at Km (3.0 μM). The reaction was incubated at room temperature for 40 min and stopped upon the addition of SA-XL665 and TK-antibody both diluted in EDTA-containing kinase detection buffer (Cisbio). The kinase activity was calculated as stated above and the IC50 values were reported.

Human Mer = target: T2, Human Mer (Homo sapiens, UniProt Q12866); assay: Human Mer kinase assay (33P radiometric / HTRF KinEase); assay type: biochemical; details: protocols of Examples C-1 and/or C-2
T2 construct: Human Mer (residues R557-E882 with H628Q and R794A, 0.7 nM); purchased Eurofins Pharma Discovery Services UK Limited (KinaseProfiler service)
T2 sequence (Q12866 557-882 limits assumed): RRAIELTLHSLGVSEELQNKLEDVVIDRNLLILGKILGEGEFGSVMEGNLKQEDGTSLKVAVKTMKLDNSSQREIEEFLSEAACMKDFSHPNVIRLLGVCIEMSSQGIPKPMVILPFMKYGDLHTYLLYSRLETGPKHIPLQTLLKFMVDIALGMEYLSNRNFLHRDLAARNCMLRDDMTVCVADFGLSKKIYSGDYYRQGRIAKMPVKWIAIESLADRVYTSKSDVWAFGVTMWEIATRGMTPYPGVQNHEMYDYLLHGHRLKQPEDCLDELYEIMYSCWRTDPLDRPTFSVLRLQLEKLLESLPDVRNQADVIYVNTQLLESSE
Method in brief: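 Two formats yield IC50 values. HTRF KinEase used MER residues 528-999 with ATP at Km (40 μM), 1 μM biotin-peptide, 60 min RT, […], 10 concentrations. 33P filter assay used 0.7 nM Mer R557-E882 (H628Q/R794A), 10 μM ATP, 250 μM peptide, 40 min RT, top 1 μM.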

T1 sequence (P08581 974-1390 limits assumed): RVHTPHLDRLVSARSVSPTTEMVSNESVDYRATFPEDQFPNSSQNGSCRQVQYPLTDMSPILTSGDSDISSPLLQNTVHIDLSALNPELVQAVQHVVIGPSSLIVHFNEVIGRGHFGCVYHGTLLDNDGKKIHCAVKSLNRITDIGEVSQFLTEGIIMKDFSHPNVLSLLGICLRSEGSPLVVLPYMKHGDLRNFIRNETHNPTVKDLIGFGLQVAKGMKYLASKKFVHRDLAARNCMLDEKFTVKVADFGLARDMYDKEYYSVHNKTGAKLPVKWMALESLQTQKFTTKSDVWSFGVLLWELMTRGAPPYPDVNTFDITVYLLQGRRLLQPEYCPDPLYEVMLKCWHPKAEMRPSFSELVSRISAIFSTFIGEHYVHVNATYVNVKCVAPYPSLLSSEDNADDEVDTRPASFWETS

Q: With `COc1cc2nccc(Oc3ccc(NC(=O)c4cn(C)c(C)c(C5=CCCC5)c4=O)cc3F)c2nc1OC` [Compound 1, 5-(Cyclopenten-1-yl)-N-[4-[(6,7-dimethoxy-1,5-naphthyridin-4-yl)oxy]-3-fluorophenyl]-1,6-dimethyl-4-oxopyridine-3-carboxamide] as the molecule, how does the IC50 (Human Met) read?
A: ≤ 100 nM

Q: And the IC50 (Human Mer)?
A: ≤ 100 nM

Q: Which results are given for `COc1cc2nccc(Oc3ccc(NC(=O)c4c(C)nc(C)c(C5=CCCC5)c4O)cc3F)c2nc1OC` [Compound 1-2, 5-(Cyclopenten-1-yl)-N-[4-[(6,7-dimethoxy-1,5-naphthyridin-4-yl)oxy]-3-fluorophenyl]-4-hydroxy-2,6-dimethylpyridine-3-carboxamide hydrochloride]?
A: IC50 (Human Met): ≤ 100 nM; IC50 (Human Mer): ≤ 100 nM

Q: With `COc1cc2nccc(Oc3ccc(NC(=O)c4cnc(C)c(C5=CCOCC5)c4O)cc3F)c2nc1OC` [Compound 1-3, 5-(3,6-Dihydro-2H-pyran-4-yl)-N-[4-[(6,7-dimethoxy-1,5-naphthyridin-4-yl)oxy]-3-fluorophenyl]-4-hydroxy-6-methylpyridine-3-carboxamide] as the molecule, how does the IC50 (Human Met) read?
A: ≤ 100 nM

Q: And the IC50 (Human Mer)?
A: ≤ 100 nM

Q: `COc1cnc2c(Oc3ccc(NC(=O)c4cnc(C)c(C5=CCOCC5)c4O)cc3F)ccnc2c1` [Compound 1-4, 5-(3,6-Dihydro-2H-pyran-4-yl)-N-[3-fluoro-4-[(7-methoxy-1,5-naphthyridin-4-yl)oxy]phenyl]-4-hydroxy-6-methylpyridine-3-carboxamide] was tested. Which IC50 (Human Met) did it give?
A: ≤ 100 nM

Q: What about the IC50 (Human Mer) of the same molecule?
A: ≤ 100 nM

Q: Which results are given for `COc1ccc2nccc(Oc3ccc(NC(=O)c4cnc(C)c(C5=CCOCC5)c4O)cc3F)c2n1` [Compound 1-5, 5-(3,6-Dihydro-2H-pyran-4-yl)-N-[3-fluoro-4-[(6-methoxy-1,5-naphthyridin-4-yl)oxy]phenyl]-4-hydroxy-6-methylpyridine-3-carboxamide]?
A: IC50 (Human Met): > 300 nM; IC50 (Human Mer): ≤ 100 nM

Q: What does the source list for `COc1ccc2nccc(Oc3ccc(NC(=O)c4cnc(C)c(C5=CCCCC5)c4O)cc3F)c2n1` [Compound 1-6, 5-(Cyclohexen-1-yl)-N-[3-fluoro-4-[(6-methoxy-1,5-naphthyridin-4-yl)oxy]phenyl]-4-hydroxy-6-methylpyridine-3-carboxamide]?
A: IC50 (Human Met): ≤ 100 nM; IC50 (Human Mer): ≤ 100 nM

Q: `COc1ccc2nccc(Oc3ccc(NC(=O)c4cnc(C)c(C5=CCCC5)c4O)cc3F)c2n1` [Compound 1-7, 5-(Cyclopenten-1-yl)-N-[3-fluoro-4-[(6-methoxy-1,5-naphthyridin-4-yl)oxy]phenyl]-4-hydroxy-6-methylpyridine-3-carboxamide] was tested. Which IC50 (Human Met) did it give?
A: ≤ 100 nM

Q: And the IC50 (Human Mer)?
A: ≤ 100 nM

Q: What does the source list for `COc1cnc2c(Oc3ccc(NC(=O)c4cnc(C)c(C5=CCCC5)c4O)cc3F)ccnc2c1` [Compound 1-9, 5-(Cyclopenten-1-yl)-N-[3-fluoro-4-[(7-methoxy-1,5-naphthyridin-4-yl)oxy]phenyl]-4-hydroxy-6-methylpyridine-3-carboxamide]?
A: IC50 (Human Met): ≤ 100 nM; IC50 (Human Mer): ≤ 100 nM

Q: `COc1cc2nccc(Oc3ccc(NC(=O)c4cn(C)c(C)c(C5CCCC5)c4=O)cc3F)c2nc1OC` [Compound 2, 5-Cyclopentyl-N-[4-[(6,7-dimethoxy-1,5-naphthyridin-4-yl)oxy]-3-fluorophenyl]-1,6-dimethyl-4-oxopyridine-3-carboxamide] was tested. Which IC50 (Human Met) did it give?
A: ≤ 100 nM

Q: And the IC50 (Human Mer)?
A: ≤ 100 nM

Q: For `COc1cc2nccc(Oc3ccc(NC(=O)c4c(C)nc(C)c(C5=CCCCC5)c4O)cc3F)c2nc1OC` [Compound 2-3, 5-(Cyclohexen-1-yl)-N-[4-[(6,7-dimethoxy-1,5-naphthyridin-4-yl)oxy]-3-fluorophenyl]-4-hydroxy-2,6-dimethylpyridine-3-carboxamide], which IC50 (Human Met) is on record?
A: ≤ 100 nM

Q: What about the IC50 (Human Mer) of the same molecule?
A: ≤ 100 nM

Q: Which results are given for `C=C(C)c1c(C)nc(C)c(C(=O)Nc2cc(F)c(Oc3ccnc4cc(OC)c(OC)nc34)cc2F)c1O` [Compound 6, N-[4-[(6,7-Dimethoxy-1,5-naphthyridin-4-yl)oxy]-2,5-difluorophenyl]-4-hydroxy-2,6-dimethyl-5-prop-1-en-2-ylpyridine-3-carboxamide]?
A: IC50 (Human Met): ≤ 100 nM; IC50 (Human Mer): ≤ 100 nM

Q: Which IC50 (Human Met) does the source give for `COc1cnc2c(Oc3ccc(NC(=O)c4cnc(C)c(C5=CCOCC5)c4O)cc3)ccnc2c1` [Compound 7, 5-(3,6-Dihydro-2H-pyran-4-yl)-4-hydroxy-N-[4-[(7-methoxy-1,5-naphthyridin-4-yl)oxy]phenyl]-6-methylpyridine-3-carboxamide] here?
A: ≤ 100 nM

Q: And the IC50 (Human Mer)?
A: ≤ 100 nM

Q: Which IC50 (Human Met) does the source give for `COc1cc2nccc(Oc3ccc(NC(=O)c4cn(CCF)c(C)c(C5=CCCCC5)c4=O)cc3F)c2nc1OC` [Compound 8, 5-(Cyclohexen-1-yl)-N-[4-[(6,7-dimethoxy-1,5-naphthyridin-4-yl)oxy]-3-fluorophenyl]-1-(2-fluoroethyl)-6-methyl-4-oxopyridine-3-carboxamide] here?
A: ≤ 100 nM

Q: And the IC50 (Human Mer)?
A: ≤ 100 nM

Q: For `COc1cc2nccc(Oc3ccc(NC(=O)c4c(C)nc(C)c(C(C)C)c4O)cc3)c2nc1OC` [Compound 9, N-[4-[(6,7-Dimethoxy-1,5-naphthyridin-4-yl)oxy]phenyl]-4-hydroxy-2,6-dimethyl-5-propan-2-ylpyridine-3-carboxamide], which IC50 (Human Met) is on record?
A: ≤ 100 nM

Q: And the IC50 (Human Mer)?
A: ≤ 100 nM

Q: Which IC50 (Human Met) does the source give for `COc1cc2nccc(Oc3cc(F)c(NC(=O)c4c(C)nc(C)c(C(C)C)c4O)cc3F)c2nc1OC` [Compound 10, N-[4-[(6,7-Dimethoxy-1,5-naphthyridin-4-yl)oxy]-2,5-difluorophenyl]-4-hydroxy-2,6-dimethyl-5-propan-2-ylpyridine-3-carboxamide] here?
A: ≤ 100 nM

Q: What about the IC50 (Human Mer) of the same molecule?
A: ≤ 100 nM

Q: Which results are given for `COc1cc2nccc(Oc3ccc(NC(=O)c4cn(CCF)c(C)c(C5=CCCC5)c4=O)cc3F)c2nc1OC` [Compound 11, 5-(Cyclopenten-1-yl)-N-[4-[(6,7-dimethoxy-1,5-naphthyridin-4-yl)oxy]-3-fluorophenyl]-1-(2-fluoroethyl)-6-methyl-4-oxopyridine-3-carboxamide]?
A: IC50 (Human Met): ≤ 100 nM; IC50 (Human Mer): ≤ 100 nM

Q: What does the source list for `COc1cnc2c(Oc3ccc(NC(=O)c4cn(C)c(C)c(C5=CCOCC5)c4=O)cc3F)ccnc2c1` [Compound 12, 5-(3,6-Dihydro-2H-pyran-4-yl)-N-[3-fluoro-4-[(7-methoxy-1,5-naphthyridin-4-yl)oxy]phenyl]-1,6-dimethyl-4-oxopyridine-3-carboxamide]?
A: IC50 (Human Met): ≤ 100 nM; IC50 (Human Mer): ≤ 100 nM

Q: Which IC50 (Human Met) does the source give for `COc1cc2nccc(Oc3ccc(NC(=O)c4cn(CCF)c(C)c(C5CCCC5)c4=O)cc3F)c2nc1OC` [Compound 13, 5-Cyclopentyl-N-[4-[(6,7-dimethoxy-1,5-naphthyridin-4-yl)oxy]-3-fluorophenyl]-1-(2-fluoroethyl)-6-methyl-4-oxopyridine-3-carboxamide] here?
A: ≤ 100 nM

Q: What about the IC50 (Human Mer) of the same molecule?
A: ≤ 100 nM

Q: Which results are given for `COc1cc2nccc(Oc3ccc(NC(=O)c4c(C)cc(C)n(C5=CCCC5)c4=O)cc3F)c2nc1OC` [Compound 14, 1-(Cyclopenten-1-yl)-N-[4-[(6,7-dimethoxy-1,5-naphthyridin-4-yl)oxy]-3-fluorophenyl]-4,6-dimethyl-2-oxopyridine-3-carboxamide]?
A: IC50 (Human Met): ≤ 100 nM; IC50 (Human Mer): ≤ 100 nM
